US12686690B2, “Macrocyclic urea orexin receptor agonists” (Merck Sharp & Dohme LLC, priority 2020, dated 2026)

Target: T1, hOX2R (Homo sapiens, UniProt O43614)
T1 construct: expressed in transfected cells; host or cells: CHO cells (G418 selection)
T1 sequence (O43614 1-444): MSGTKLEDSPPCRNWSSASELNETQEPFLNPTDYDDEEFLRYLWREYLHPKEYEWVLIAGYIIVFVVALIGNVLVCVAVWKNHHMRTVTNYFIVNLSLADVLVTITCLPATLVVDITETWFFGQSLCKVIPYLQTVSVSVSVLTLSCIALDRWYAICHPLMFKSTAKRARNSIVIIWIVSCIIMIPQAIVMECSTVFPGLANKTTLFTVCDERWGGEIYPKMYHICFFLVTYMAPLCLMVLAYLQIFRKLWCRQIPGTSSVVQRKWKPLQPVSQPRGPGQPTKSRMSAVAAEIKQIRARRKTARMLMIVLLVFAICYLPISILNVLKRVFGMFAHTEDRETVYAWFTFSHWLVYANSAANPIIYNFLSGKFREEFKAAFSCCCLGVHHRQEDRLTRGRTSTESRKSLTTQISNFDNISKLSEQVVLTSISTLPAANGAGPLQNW
Assay: hOX2R IPone assay (orexin receptor agonism)
Assay type: cell-based
Conditions: IPone readout; for hOX2R_Ipone max %act: maximal activation; for EC50: orexin receptor agonist, read-out: hOX2R_IPone EC50

Q: With `CCN1C(=O)N[C@@H](CCC(F)(F)F)CCCCCOc2cc(cn3ccnc23)-c2nc(ccc2OC)[C@H]1C` [Example 50, (3R,7R,E)-4-ethyl-23-methoxy-3-methyl-7-(3,3,3-trifluoropropyl)-13-oxa-4,6-diaza-1(6,8)-imidazo[1,2-a]pyridina-2(2,6)-pyridinacyclotridecaphan-5-one] as the compound, how does the hOX2R_Ipone max %act read?
A: 98.7%

Q: And the EC50?
A: 0.8 nM

Q: Which hOX2R_Ipone max %act does the source give for `CCN1Cc2cnc(OC)c(c2)-c2cn3ccnc3c(n2)OCCCCC[C@H](CCC(F)(F)F)NC1=O` [Example 51] here?
A: 99.5%

Q: And the EC50?
A: 0.6 nM

Q: Which results are given for `CCN1C(=O)N[C@@H](C(F)(F)F)CCCCCOc2nc(cn3ccnc23)-c2cc(ncc2OC)[C@H]1C` [Example 77, (12R,16R)-13-ethyl-8-methoxy-12-methyl-16-(trifluoromethyl)-12,13,16,17,18,19,20, 21-octahydro-6,23-(azeno)-11,7-(metheno)imidazo[2,1-c][1,4,10,13,15]oxatet-raazacyclohenicosin-14(15H)-one]?
A: hOX2R_Ipone max %act: 101.7%; EC50: 20.9 nM

Q: Which hOX2R_Ipone max %act does the source give for `CCN1C(=O)N[C@@H](CCC(F)(F)F)CCCCCOc2nc(cn3ccnc23)-c2cc(cnc2C)[C@H]1C` [Example 78, (12R,16R)-13-ethyl-8,12-dimethyl-16-(3,3,3-trifluoropropyl)-12,13,16,17,18,19,20, 21-octahydro-6,23-(azeno)-11,7-(metheno)imidazo[2,1-c][1,4,9,13,15]oxatet-raazacyclohenicosin-14(15H)-one] here?
A: 99.0%

Q: What about the EC50 of the same compound?
A: 1.7 nM

Q: For `CCN1C(=O)N[C@@H](CCC(F)(F)F)CCCCCOc2nc(cn3ccnc23)-c2cc(ncc2C)[C@H]1C` [Example 79, (12R,16R)-13-ethyl-8,12-dimethyl-16-(3,3,3-trifluoro-propyl)-12,13,16,17, 18,19,20,21-octa-hydro-6,23-(azeno)-11,7-(metheno) imidazo[2,1-c][1,4,10, 13,15]oxatetraazacyclo-henicosin-14(15H)-one], which hOX2R_Ipone max %act is on record?
A: 99.3%

Q: What about the EC50 of the same compound?
A: 1 nM

Q: What does the source list for `CCN1C(=O)N[C@@H](CCC(F)(F)F)CCCCCCc2nc(cn3ccnc23)-c2cc(ncc2OC)[C@H]1C` [Example 81, (12R,16R)-13-ethyl-8-methoxy-12-methyl-16-(3,3,3-trifluoropropyl)-12,13,15,16,17,18,19, 20,21,22-decahydro-14H-6,23-(azeno)-11,7-(metheno) imidazo[1,2-l][1,3,6,12]tetraazacy-clohenicosin-14-one]?
A: hOX2R_Ipone max %act: 100.1%; EC50: 3.3 nM

Q: How did the hOX2R_Ipone max %act turn out when `CCN1C(=O)N[C@@H](CCC(F)(F)F)CCCCCOc2nc(cn3ncnc23)-c2cc(ncc2OC)[C@H]1C` [Example 82, (12R,16R)-13-ethyl-8-methoxy-12-methyl-16-(3,3,3-tri-fluoropropyl)-12,13, 16,17,18,19,20,21-octahydro-6,23-(azeno)-11,7-(metheno)[1,2,4]tria-zolo[5,1-c][1,4,10,13, 15]oxatetraazacyclo-henicosin-14(15H)-one] was run?
A: 99.62%

Q: What about the EC50 of the same compound?
A: 2.2 nM

Q: `CCN1C(=O)N[C@@H](CCC(C)(F)F)CCCCCOc2nc(cn3ccnc23)-c2cc(ncc2OC)[C@H]1C` [Example 83, (12R,16R)-16-(3,3-difluorobutyl)-13-ethyl-8-methoxy-12-methyl-12,13,16,17, 18,19,20,21-octa-hydro-6,23-(azeno)-11,7-(metheno) imidazo[2,1-c][1,4,9,13,15]oxatetraazacy-clohenicosin-14(15H)-one] was tested. Which hOX2R_Ipone max %act did it give?
A: 100.7%

Q: What about the EC50 of the same compound?
A: 1 nM

Q: Which hOX2R_Ipone max %act does the source give for `CCN1C(=O)N[C@@H](CCC(C)(F)F)CCCCCOc2nc(cn3ccnc23)-c2ccnc(c2)[C@H]1C` [Example 84, (12R,16R)-16-(3,3-difluorobutyl)-13-ethyl-12-methyl-12, 13,16,17,18,19,20,21-octahydro-6,23-(azeno)-11,7-(metheno)imidazo[2,1-c][1,4,10,13,15] oxatetraazacycloheni-cosin-14(15H)-one] here?
A: 99.1%

Q: What about the EC50 of the same compound?
A: 1.5 nM

Q: What does the source list for `CCN1C(=O)NCCCCCCOc2nc(cn3ccnc23)-c2cc(ncc2OC)[C@H]1C` [Example 85, (12R)-13-ethyl-8-methoxy-12-methyl-12,13,16,17,18,19,20, 21-octahydro-6,23-(azeno)-11,7-(metheno)imidazo[2,1-c][1,4,10,13,15] oxatetraazacycloheni-cosin-14(15H)-one]?
A: hOX2R_Ipone max %act: 100.5%; EC50: 5.1 nM

Q: `CCN1C(=O)N[C@@H](CCC(F)(F)F)CCCCCOc2nc(c(C)n3ccnc23)-c2cc(cnc2OC)[C@H]1C` [Example 86, (12R,16R)-13-ethyl-8-methoxy-5,12-dimethyl-16-(3,3,3-trifluoropropyl)-12,13,16,17,18,19,20, 21-octahydro-6,23-(azeno)-11,7-(metheno)imidazo[2,1-c][1,4,9,13,15] oxatetraazacycloheni-cosin-14(15H)-one] was tested. Which hOX2R_Ipone max %act did it give?
A: 99.3%

Q: What about the EC50 of the same compound?
A: 3.5 nM

Q: How did the hOX2R_Ipone max %act turn out when `CCN1C(=O)N[C@@H](CCC(F)(F)F)CCCCCOc2nc(nn3ccnc23)-c2cccc(c2)[C@H]1C` [Example 87, (12R,16R)-13-ethyl-12-methyl-16-(3,3,3-trifluoropropyl)-12,13,16,17,18,19,20, 21-octahydro-6,23-(azeno)-11,7-(metheno)imidazo[2,1-c][1,4,5,13,15] oxatetraazacycloheni-cosin-14(15H)-one] was run?
A: 100.6%

Q: What about the EC50 of the same compound?
A: 5.8 nM

Q: How did the hOX2R_Ipone max %act turn out when `CCN1C(=O)N[C@@H](CCC(F)(F)F)CCCCCOc2cc(nn3ccnc23)-c2cc(cnc2OC)[C@H]1C` [Example 89, (12R,16R)-13-ethyl-8-methoxy-12-methyl-16-(3,3,3-trifluoropropyl)-12,13,16,17,18,19,20, 21-octahydro-6,23:11,7-di(metheno) imidazo[2,1-c][1,4,5,9,13,15]oxapentaaza-cyclohenicosin-14(15H)-one] was run?
A: 99.2%

Q: What about the EC50 of the same compound?
A: 6.4 nM

Q: How did the hOX2R_Ipone max %act turn out when `CCN1C(=O)N[C@@H](CCC(F)(F)F)CCCCCOc2nc(cn3ccnc23)-c2cccc(n2)C1C` (stereo partly drawn) [Example 90, (16R)-13-ethyl-12-methyl-16-(3,3,3-trifluoropropyl)-12,13,16,17,18,19,20, 21-octahydro-6,23:11,7-di(azeno) imidazo[2,1-c][1,4, 13,15]oxatriazacyclo-henicosin-14(15H)-one] was run?
A: 100.8%

Q: What about the EC50 of the same compound?
A: 101 nM

Q: `CCN1C(=O)N[C@@H](CCC(F)(F)F)CCCCCOc2cc(cn3ccnc23)-c2cc(cnc2OC)[C@H]1C` [Example 91, (12R,16R)-13-ethyl-8-methoxy-12-methyl-16-(3,3,3-trifluoropropyl)-12,13,16,17,18,19,20, 21-octahydro-6,23:11,7-di(metheno) imidazo[2,1-c][1,4,9, 13,15]oxatetraazacyclo-henicosin-14(15H)-one] was tested. Which hOX2R_Ipone max %act did it give?
A: 100.5%

Q: And the EC50?
A: 0.6 nM

Q: With `CCN1C(=O)N[C@@H](CCC(F)(F)F)CCCCCOc2nc(cn3ccnc23)-c2nc(ncc2C)[C@@H]1C` [Example 93A, (12S,16R)-13-ethyl-8,12-dimethyl-16-(3,3,3-trifluoro-propyl)-12,13,16,17, 18,19,20,21-octa-hydro-6,23:11,7-di(azeno)imidazo[2,1-c][1,4,10,13,15]oxatet-raazacyclohenicosin-14(15H)-one] as the compound, how does the hOX2R_Ipone max %act read?
A: 100.8%

Q: And the EC50?
A: 167 nM

Q: With `CCN1C(=O)N[C@@H](CCC(F)(F)F)CCCCCOc2nc(cn3ccnc23)-c2nc(ncc2C)[C@H]1C` [Example 93B, (12R,16R)-13-ethyl-8,12-dimethyl-16-(3,3,3-trifluoro-propyl)-12,13,16,17, 18,19,20,21-octa-hydro-6,23:11,7-di(azeno)imidazo[2,1-c][1,4,10,13,15]oxatet-raazacyclohenicosin-14(15H)-one] as the compound, how does the hOX2R_Ipone max %act read?
A: 100.6%

Q: What about the EC50 of the same compound?
A: 1.8 nM

Q: How did the hOX2R_Ipone max %act turn out when `CCN1C(=O)N[C@@H](CCC(F)(F)F)CCCCCOc2nc(cn3ccnc23)C2=CN=C(S2)C1C` (stereo partly drawn) [Example 95, (15R)-12-ethyl-11-methyl-15-(3,3,3-trifluoropropyl)-11,12,15,16,17,18,19, 20-octahydro-6,22-(azeno)-7,10-epithioimidazo[2,1-c][1,4,9,12,14]oxatet-raazacycloicosin-13(14H)-one] was run?
A: 99.78%

Q: What about the EC50 of the same compound?
A: 25.4 nM

Q: With `CCN1C(=O)N[C@@H](CCC(F)(F)F)CCCCCOc2nc(cn3ccnc23)-c2nc(ccc2OC)[C@H]1C` [Example 97, (12R,16R)-13-ethyl-8-methoxy-12-methyl-16-(3,3,3-trifluoropropyl)-12,13,16,17,18,19,20, 21-octahydro-6,23:11,7-di(azeno) imidazo[2,1-c][1,4,13,15]oxatriaza-cyclohenicosin-14(15H)-one] as the compound, how does the hOX2R_Ipone max %act read?
A: 102%

Q: And the EC50?
A: 0.6 nM

Q: How did the hOX2R_Ipone max %act turn out when `CCN1C(=O)N[C@@H](CCC(F)(F)F)CCCCCOc2nc(nc3ccnn23)-c2cc(ncc2OC)[C@H]1C` [Example 98, (11R,15R)-12-ethyl-7-methoxy-11-methyl-15-(3,3,3-trifluoropropyl)-11,12,15,16,17,18,19, 20-octahydro-5,22-(azeno)-10,6-(metheno)pyrazolo[1,5-c][1,3,5,10,13,15] oxapentaazacycloheni-cosin-13(14H)-one] was run?
A: 101.2%

Q: What about the EC50 of the same compound?
A: 8.6 nM

Q: How did the hOX2R_Ipone max %act turn out when `CCN1C(=O)N[C@@H](CC(F)(F)F)CCCCCOc2nc(nn3ccnc23)-c2cc(cnc2OC)[C@H]1C` [Example 99, (12R,16R)-13-ethyl-8-methoxy-12-methyl-16-(2,2,2-trifluoroethyl)-12,13,16,17,18,19,20, 21-octahydro-6,23-(azeno)-11,7-(metheno)imidazo[2,1-c][1,4,5,9,13,15] oxapentaazacycloheni-cosin-14(15H)-one] was run?
A: 95.9%

Q: What about the EC50 of the same compound?
A: 48.8 nM
